This assay concerns the target T1, Porcine pancreatic α-amylase (Sus scrofa, UniProt P00690).
T1 construct: gene AMY2
T1 sequence (P00690 16-511): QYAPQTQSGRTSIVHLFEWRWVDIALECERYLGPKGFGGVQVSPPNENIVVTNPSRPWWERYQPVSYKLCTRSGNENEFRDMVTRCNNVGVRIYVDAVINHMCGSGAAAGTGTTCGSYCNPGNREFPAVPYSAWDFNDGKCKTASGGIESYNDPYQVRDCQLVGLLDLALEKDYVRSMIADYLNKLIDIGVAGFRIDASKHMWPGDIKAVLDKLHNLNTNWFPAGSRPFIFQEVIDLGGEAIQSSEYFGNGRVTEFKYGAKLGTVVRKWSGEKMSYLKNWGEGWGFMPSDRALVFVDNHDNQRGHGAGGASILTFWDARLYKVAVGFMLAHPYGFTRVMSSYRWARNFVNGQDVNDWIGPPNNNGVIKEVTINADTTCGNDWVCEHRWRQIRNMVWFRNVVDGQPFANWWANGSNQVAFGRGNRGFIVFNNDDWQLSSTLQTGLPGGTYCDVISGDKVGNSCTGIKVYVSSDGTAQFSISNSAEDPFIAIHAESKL
The assay can be described thus: starch hydrolysis assay (Bernfeld, reducing sugar at OD540) with commercial enzyme type VI-B. Format: biochemical.

As to `Oc1cccc2nc3ccccc3nc12` [SF-1, hemi-pyocyanin], the half-maximal inhibitory concentration (IC50) was 15.8 µM.

(Values after publication PMC9171587, “Novel α-Amylase Inhibitor Hemi-Pyocyanin Produced by Microbial Conversion of Chitinous Discards” (Marine Drugs, 2022).)
